Results taken from patent publication US6414019B1, “Synergistic mixtures of selected amino acids” (Agrogene Ltd., priority 1997, dated 2002).
≈ marks a conversion by molar mass, not a printed value. Where “and” joins values, the source holds several entries; their conditions need not be identical. Identical values can stand only once.

Key:
[1] = system: Peronospora tabacina S strain; experiment: Control of downy mildew in tobacco, fungal isolate S (sporulation inhibition); type: in vivo
[2] = system: Peronospora tabacina R strain; experiment: Control of downy mildew in tobacco, fungal isolate R (sporulation inhibition); type: in vivo
Plasmopara viticola = details: in vivo
[3] = system: Pseudoperonospora cubensis (resistance to metalaxyl); details: in vivo
[4] = 0.5 mg/L active ingredient, tobacco, fungal isolate S (Table 31)
[5] = 5 mg/L active ingredient, tobacco, fungal isolate S (Table 31)
[6] = 50 mg/L active ingredient, tobacco, fungal isolate S (Table 31)
[7] = 16 mg/L active ingredient, fungal isolate R, Table 29
[8] = 50 mg/L active ingredient, fungal isolate R, Table 28
[9] = 62 mg/L active ingredient, fungal isolate R, Table 29
[10] = 100 mg/L active ingredient, fungal isolate R, Table 30
[11] = 200 mg/L active ingredient, fungal isolate R, Table 30
[12] = 250 mg/L active ingredient, fungal isolate R, Table 29
[13] = 400 mg/L active ingredient, fungal isolate R, Table 30

CC(N)CC(=O)O (stereo not drawn) [BABA, DLβ-amino-butanoic acid]
Percent Disease Control [1, 4]: 0% | Percent Disease Control [1, 5]: 27% | Percent Disease Control [1, 6]: 59% | ED90 ([1]; in vivo): 78 mg/L (≈ 756 µM) | Percent Disease Control [2, 7]: 3% | Percent Disease Control [2, 8]: 0% | Percent Disease Control [2, 9]: 27% | Percent Disease Control ([2]; 100 mg/L active ingredient, fungal isolate R, Table 28): 13% | Percent Disease Control [2, 10]: 37% | Percent Disease Control ([2]; 200 mg/L active ingredient, fungal isolate R, Table 28): 100% | Percent Disease Control [2, 11]: 62% | Percent Disease Control [2, 12]: 51% | Percent Disease Control [2, 13]: 100% | ED90 (Plasmopara viticola): 38 mg/L and 33 mg/L and 36 mg/L and 44 mg/L

CSC(=O)c1cccc2nnsc12 [BION, Acibenzolar-s-methyl]
Percent Disease Control [1, 4]: 54% | Percent Disease Control [1, 5]: 76% | Percent Disease Control [1, 6]: 85% | ED90 ([1]; tobacco, fungal isolate S (Table 31)): 52 mg/L (≈ 247 µM) | Percent Disease Control [2, 7]: 76% | Percent Disease Control [2, 9]: 76% | Percent Disease Control [2, 10]: 37% | Percent Disease Control [2, 11]: 50% | Percent Disease Control [2, 12]: 99% | Percent Disease Control [2, 13]: 80% | ED90 ([2]; fungal isolate R, Table 29): 88 mg/L (≈ 418 µM) | ED90 ([2]; fungal isolate R, Table 30): 443 mg/L (≈ 2110 µM) | ED90 (Plasmopara viticola): 6 mg/L (≈ 28.5 µM)

[Cu+2].[OH-].[OH-] [Cu(OH)2, copper hydroxide]
ED90 [3]: 304 mg/L | Percent Disease Control [3]: 67% and 77% and 80%

O=C1c2ccccc2C(=O)N1SC(Cl)(Cl)Cl [FOLPET, Folpet]
ED90 [3]: 403 mg/L (≈ 1360 µM)

COCC(=O)N(c1c(C)cccc1C)[C@H](C)C(=O)OC (single isomer, unassigned) [Metalaxyl Single Isomer]
ED90 [3]: 844 mg/L (≈ 3020 µM) | Percent Disease Control [3]: 0% and 8%

CO/C=C(/C(=O)OC)c1ccccc1Oc1cc(Oc2ccccc2C#N)ncn1 [AZOXYSTROBINE, Azoxystrobin]
Percent Disease Control ([2]; 5 mg/L active ingredient, fungal isolate R, Table 28): 81% | Percent Disease Control ([2]; 10 mg/L active ingredient, fungal isolate R, Table 28): 81% | Percent Disease Control ([2]; 25 mg/L active ingredient, fungal isolate R, Table 28): 81% | Percent Disease Control [2, 8]: 93% | Percent Disease Control ([2]; dose not printed (value stands in the Ratio column), fungal isolate R, Table 28): 13% | ED90 ([2]; fungal isolate R, Table 28): 27 mg/L (≈ 66.9 µM)

COc1ccc(C(=CC(=O)N2CCOCC2)c2ccc(Cl)cc2)cc1OC [DMN, DIMETHOMORPH]
Percent Disease Control [3]: 32% Control | ED90 (Plasmopara viticola): 19 mg/L (≈ 49 µM)

CCNC(=O)NC(=O)/C(C#N)=N/OC [Cymoxanil]
Percent Disease Control [2, 10]: 25% | Percent Disease Control [2, 11]: 25% | Percent Disease Control [2, 13]: 62% | ED90 ([2]; in vivo): 596 mg/L (≈ 3010 µM)

Cc1ccc(C(C)NC(=O)[C@@H](NC(=O)OC(C)C)C(C)C)cc1 (stereo partly shown) [Fencaramid]
ED90 [3]: 19 mg/L (≈ 59.3 µM) | Percent Disease Control [3]: 78% and 83% and 95% and 100%

COCC(=O)N(c1c(C)cccc1C)[C@H](C)C(=O)OC [RIDOMILGOLD]
Percent Disease Control [2, 7]: 49% | Percent Disease Control [2, 9]: 37% | Percent Disease Control [2, 10]: 20% | Percent Disease Control [2, 11]: 35% | Percent Disease Control [2, 12]: 58% | Percent Disease Control [2, 13]: 42% | ED90 ([2]; fungal isolate R, Table 29): 416 mg/L (≈ 1490 µM) | ED90 ([2]; fungal isolate R, Table 30): >1000 mg/L

Mancozeb
ED90 [3]: 315 mg/L and 167 mg/L
